Source: US20060069132A1, “Azolecarboxamide herbicides” (priority 2004, published 2006)

Tests used:
pigweed = assay: Test B pre-/postemergence herbicide test; format: in vivo, Amaranthus retroflexus; conditions: for Pigweed plant response rating: postemergence, visual rating, scale 0 (no effect) to 100 (complete control)
Summary of the method: (§1)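 Herbicidal effect was judged by eye on a 0–100 scale after plants stood 13 to 15 days in the greenhouse following pre- or postemergence treatment with surfactant-containing formulations.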

corn = assay: Test B pre-/postemergence herbicide test; format: in vivo, Zea mays; conditions: for Corn plant response rating: postemergence, visual rating, scale 0 (no effect) to 100 (complete control)
Summary of the method: as §1

velvetleaf [1] = assay: Test B pre-/postemergence herbicide test; format: in vivo, Abutilon theophrasti; conditions: for Velvetleaf plant response rating: postemergence, visual rating, scale 0 (no effect) to 100 (complete control)
Summary of the method: as §1

barnyardgrass [2] = assay: Test B flooded paddy test; format: in vivo, Echinochloa crus-galli; conditions: 1000 g ai/ha, visual rating, scale 0 to 100 (0 no effect, 100 complete control), 13 to 15 days
Summary of the method: (§2)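 After treating 2-leaf paddy plants or 2–18 cm postemergence plants (1 to 4 leaves) with formulated chemical, researchers kept them in a greenhouse for 13–15 days. Effects were judged visually versus controls: 0 indicates none, 100 total control.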

barnyardgrass [3] = assay: Test A pre-/postemergence herbicide test; format: in vivo, Echinochloa crus-galli
Summary of the method: (§3)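 Plants are held in greenhouse about ten days after treatment, then compared with untreated controls and scored 0 (no effect) to 100 (complete control). Preemergence dosing is a directed soil spray on sown sandy loam; postemergence dosing is spray to runoff at 2–10 cm height.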

morningglory [4] = assay: Test A pre-/postemergence herbicide test; format: in vivo, Ipomoea spp.
Summary of the method: as §3

velvetleaf [5] = assay: Test A pre-/postemergence herbicide test; format: in vivo, Abutilon theophrasti
Summary of the method: as §3

ducksalad = assay: Test B flooded paddy test; format: in vivo, Heteranthera limosa; conditions: 1000 g ai/ha, visual rating, scale 0 to 100 (0 no effect, 100 complete control), 13 to 15 days
Summary of the method: as §2

redroot pigweed = assay: Test A pre-/postemergence herbicide test; format: in vivo, Amaranthus retroflexus
Summary of the method: as §3

cocklebur = assay: Test B pre-/postemergence herbicide test; format: in vivo, Xanthium strumarium; conditions: for Cocklebur plant response rating: postemergence, visual rating, scale 0 (no effect) to 100 (complete control)
Summary of the method: (§4)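 Flooded paddy rice and barnyardgrass were treated at the 2-leaf stage; upland plantings received compound either on sown seed or on 1- to 4-leaf seedlings. All were kept 13–15 days in a greenhouse and scored visually, 0–100, relative to untreated plants.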

large crabgrass [6] = assay: Test A pre-/postemergence herbicide test; format: in vivo, Digitaria sanguinalis
Summary of the method: as §3

barnyardgrass [7] = assay: Test B pre-/postemergence herbicide test; format: in vivo, Echinochloa crus-galli; conditions: for Barnyardgrass plant response rating: postemergence, visual rating, scale 0 (no effect) to 100 (complete control)
Summary of the method: as §4

wild oat = assay: Test B postemergence herbicide test; format: in vivo, Avena fatua; conditions: postemergence, visual rating, scale 0 (no effect) to 100 (complete control)
Summary of the method: as §2

giant foxtail [8] = assay: Test A pre-/postemergence herbicide test; format: in vivo, Setaria faberi
Summary of the method: as §3

[9] = test system: small flower umbrella sedge; assay: Test B flooded paddy test; format: in vivo, Cyperus difformis; conditions: 1000 g ai/ha, visual rating, scale 0 to 100 (0 no effect, 100 complete control), 13 to 15 days
Summary of the method: as §2

lambsquarters = assay: Test B pre-/postemergence herbicide test; format: in vivo, Chenopodium album; conditions: for Lambsquarters plant response rating: postemergence, visual rating, scale 0 (no effect) to 100 (complete control)
Summary of the method: as §1

Surinam grass = assay: Test B pre-/postemergence herbicide test; format: in vivo, Urochloa decumbens; conditions: for Surinam Grass plant response rating: postemergence, visual rating, scale 0 (no effect) to 100 (complete control)
Summary of the method: as §1

wheat = assay: Test B postemergence herbicide test; format: in vivo, Triticum aestivum; set-up: key to Wheat plant response rating: 0 = no effect, 100 = complete control; conditions: postemergence, visual rating, scale 0 (no effect) to 100 (complete control)
Summary of the method: as §2

large crabgrass [10] = assay: Test B pre-/postemergence herbicide test; format: in vivo, Digitaria sanguinalis; conditions: for Crabgrass, Large plant response rating: postemergence, visual rating, scale 0 (no effect) to 100 (complete control)
Summary of the method: as §1

rice = assay: Test B flooded paddy test; format: in vivo, Oryza sativa; conditions: 1000 g ai/ha, visual rating, scale 0 to 100 (0 no effect, 100 complete control), 13 to 15 days
Summary of the method: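 Treated at 2-leaf (paddy) or 1–4-leaf, 2–18 cm (postemergence); greenhouse 13–15 d; visual score vs control, 0 none to 100 complete control; dash = not tested.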

blackgrass = assay: Test B postemergence herbicide test; format: in vivo, Alopecurus myosuroides; conditions: postemergence, visual rating, scale 0 (no effect) to 100 (complete control)
Summary of the method: as §2

giant foxtail [11] = assay: Test B pre-/postemergence herbicide test; format: in vivo, Setaria faberi; conditions: for Foxtail, Giant plant response rating: postemergence, visual rating, scale 0 (no effect) to 100 (complete control)
Summary of the method: as §1

morningglory [12] = assay: Test B pre-/postemergence herbicide test; format: in vivo, Ipomoea coccinea; conditions: for Morningglory plant response rating: postemergence, visual rating, scale 0 (no effect) to 100 (complete control)
Summary of the method: as §4

[13] = 125 g ai/ha, 0 = no effect, 100 = complete control, preemergence
[14] = 500 g ai/ha, visual rating 0-100, 0 no effect, 100 complete control, preemergence
[15] = Postemergence, 500 g ai/ha, 0 to 100 scale, 0 no effect, 100 complete control
[16] = Postemergence, 2000 g ai/ha, 0 to 100 scale, 0 no effect, 100 complete control
[17] = Preemergence, 2000 g ai/ha, visual rating, 0 to 100 scale (0 no effect, 100 complete control)
[18] = preemergence, 500 g ai/ha, visual injury, 0 to 100 scale (0 no effect, 100 complete control)

CC(=O)c1cccc(NC(=O)c2sc(C(C)(C)C)nc2C)c1 [Compound 196]
Pigweed plant response rating (0 to 100 scale) (pigweed; [13]): 0 | Plant response rating, Pigweed (pigweed; [14]): 0 | Pigweed plant response rating (pigweed; 125 g ai/ha): 10 | Pigweed plant response rating (pigweed; 500 g ai/ha): 30 | Corn plant response rating (0 to 100 scale) (corn; [13]): 0 | Plant response rating, Corn (corn; [14]): 0 | Corn plant response rating (corn; 125 g ai/ha): 0 | Corn plant response rating (corn; 500 g ai/ha): 10 | Velvetleaf plant response rating (0 to 100 scale) (velvetleaf [1]; [13]): 0 | Plant response rating, Velvetleaf (velvetleaf [1]; [14]): 20 | Velvetleaf plant response rating (velvetleaf [1]; 125 g ai/ha): 0 | Velvetleaf plant response rating (velvetleaf [1]; 500 g ai/ha): 0 | Barnyardgrass plant response rating (barnyardgrass [2]): 20 | Barnyardgrass plant response rating (barnyardgrass [3]; [15]): 0 | Plant response rating, Barnyardgrass (barnyardgrass [3]; [16]): 30 | Barnyardgrass plant response rating (barnyardgrass [3]; [17]): 55 | Barnyardgrass plant response rating (barnyardgrass [3]; [18]): 15 | Morningglory plant response rating (morningglory [4]; [15]): 5 | Plant response rating, Morningglory (morningglory [4]; [16]): 0 | Morningglory plant response rating (morningglory [4]; [17]): 10 | Morningglory plant response rating (morningglory [4]; [18]): 0 | Velvetleaf plant response rating (velvetleaf [5]; [15]): 0 | Plant response rating, Velvetleaf (velvetleaf [5]; [16]): 0 | Velvetleaf plant response rating (velvetleaf [5]; [17]): 0 | Velvetleaf plant response rating (velvetleaf [5]; [18]): 0 | Ducksalad plant response rating (ducksalad): 30 | Pigweed plant response rating (redroot pigweed; [15]): 0 | Plant response rating, Pigweed (redroot pigweed; [16]): 0 | Pigweed plant response rating (redroot pigweed; [17]): 15 | Pigweed plant response rating (redroot pigweed; [18]): 0 | Cocklebur plant response rating (0 to 100 scale) (cocklebur; [13]): 0 | Plant response rating, Cocklebur (cocklebur; [14]): 0 | Cocklebur plant response rating (cocklebur; 125 g ai/ha): 0 | Cocklebur plant response rating (cocklebur; 500 g ai/ha): 20 | Crabgrass, Large plant response rating (large crabgrass [6]; [15]): 0 | Plant response rating, Crabgrass, Large (large crabgrass [6]; [16]): 0 | Crabgrass, Large plant response rating (large crabgrass [6]; [17]): 50 | Crabgrass, Large plant response rating (large crabgrass [6]; [18]): 25 | Barnyardgrass plant response rating (0 to 100 scale) (barnyardgrass [7]; [13]): 0 | Plant response rating, Barnyardgrass (barnyardgrass [7]; [14]): 40 | Barnyardgrass plant response rating (barnyardgrass [7]; 125 g ai/ha): 0 | Barnyardgrass plant response rating (barnyardgrass [7]; 500 g ai/ha): 30 | Oat, Wild plant response rating (wild oat; 125 g ai/ha): 0 | Oat, Wild plant response rating (wild oat; 500 g ai/ha): 0 | Foxtail, Giant plant response rating (giant foxtail [8]; [15]): 0 | Plant response rating, Foxtail, Giant (giant foxtail [8]; [16]): 0 | Foxtail, Giant plant response rating (giant foxtail [8]; [17]): 20 | Foxtail, Giant plant response rating (giant foxtail [8]; [18]): 0 | Sedge, Umbrella plant response rating [9]: 30 | Lambsquarters plant response rating (0 to 100 scale) (lambsquarters; [13]): 0 | Plant response rating, Lambsquarters (lambsquarters; [14]): 0 | Lambsquarters plant response rating (lambsquarters; 125 g ai/ha): 0 | Lambsquarters plant response rating (lambsquarters; 500 g ai/ha): 30 | Surinam Grass plant response rating (0 to 100 scale) (Surinam grass; [13]): 0 | Plant response rating, Surinam Grass (Surinam grass; [14]): 0 | Surinam Grass plant response rating (Surinam grass; 125 g ai/ha): 0 | Surinam Grass plant response rating (Surinam grass; 500 g ai/ha): 40 | Wheat plant response rating (wheat; 125 g ai/ha): 0 | Wheat plant response rating (wheat; 500 g ai/ha): 0 | Crabgrass, Large plant response rating (0 to 100 scale) (large crabgrass [10]; [13]): 0 | Plant response rating, Crabgrass, Large (large crabgrass [10]; [14]): 100 | Crabgrass, Large plant response rating (large crabgrass [10]; 125 g ai/ha): 30 | Crabgrass, Large plant response rating (large crabgrass [10]; 500 g ai/ha): 30 | Rice plant response rating (rice): 0 | Blackgrass plant response rating (blackgrass; 125 g ai/ha): 0 | Blackgrass plant response rating (blackgrass; 500 g ai/ha): 0 | Foxtail, Giant plant response rating (0 to 100 scale) (giant foxtail [11]; [13]): 0 | Plant response rating, Foxtail, Giant (giant foxtail [11]; [14]): 0 | Foxtail, Giant plant response rating (giant foxtail [11]; 125 g ai/ha): 0 | Foxtail, Giant plant response rating (giant foxtail [11]; 500 g ai/ha): 0 | Morningglory plant response rating (0 to 100 scale) (morningglory [12]; [13]): 0 | Plant response rating, Morningglory (morningglory [12]; [14]): 0 | Morningglory plant response rating (morningglory [12]; 125 g ai/ha): 0 | Morningglory plant response rating (morningglory [12]; 500 g ai/ha): 0
